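Method: 48-hour compound exposure of cells in 96-well plates, five concentrations, linear interpolation of endpoints. GI50 marks 50% less growth.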 Activity calls are given as the source filed them. Rule as the data show it: active = GI50 up to about 1.1 µM and inactive = higher.
Assays:
Experiment in all cases: DTP human tumour cell line panel, 48 h
NCI-H460 = system: NCI-H460
LOX IMVI = system: LOX IMVI
SF-268 = system: SF-268
RPMI-8226 = system: RPMI-8226
A549 = system: A549
RXF 631 = system: RXF 631
SK-MEL-2 = system: SK-MEL-2
XF498 = system: XF498
M14 = system: M14
DMS-273 = system: DMS-273
HL-60 = system: HL-60
K562 = system: K562
SF-539 = system: SF-539
SN12C = system: SN12C
DMS-114 = system: DMS-114
HOP-92 = system: HOP-92
HCT-15 = system: HCT-15
SK-OV-3 = system: SK-OV-3
MOLT-4 = system: MOLT-4
HCC 2998 = system: HCC 2998
SF-295 = system: SF-295
UACC-257 = system: UACC-257
LXFL 529 = system: LXFL 529
U-251 = system: U-251
NCI-H23 = system: NCI-H23
IGROV-1 = system: IGROV-1
KM12 = system: KM12
A498 = system: A498
HCT-116 = system: HCT-116
RXF 393 = system: RXF 393
786-0 = system: 786-0
HOP-62 = system: HOP-62
HT-29 = system: HT-29
ACHN = system: ACHN
UACC-62 = system: UACC-62
CCRF-CEM = system: CCRF-CEM
SK-MEL-28 = system: SK-MEL-28
SNB-78 = system: SNB-78
SR = system: SR
DLD-1 = system: DLD-1
SNB-19 = system: SNB-19
SW-620 = system: SW-620
SK-MEL-5 = system: SK-MEL-5
OVCAR-8 = system: OVCAR-8
Malme-3M = system: Malme-3M
UO-31 = system: UO-31
OVCAR-5 = system: OVCAR-5
TK-10 = system: TK-10
OVCAR-3 = system: OVCAR-3
SNB-75 = system: SNB-75
NCI-H226 = system: NCI-H226
HOP-18 = system: HOP-18
OVCAR-4 = system: OVCAR-4
NCI-H522 = system: NCI-H522
COLO 205 = system: COLO 205
KM-20L2 = system: KM-20L2
M19-MEL = system: M19-MEL
EKVX = system: EKVX
CAKI-1 = system: CAKI-1
MDA-N = system: MDA-N
MDA-MB-435 = system: MDA-MB-435
BT-549 = system: BT-549
T47D = system: T47D
DU-145 = system: DU-145
Hs-578T = system: Hs-578T
NCI/ADR-RES = system: NCI/ADR-RES
MCF7 = system: MCF7
MDA-MB-231 = system: MDA-MB-231
PC-3 = system: PC-3

Measured: GI50

CN1C(=O)CNS1(=O)=O
inactive: NCI-H460 > 100 µM | LOX IMVI > 100 µM | SF-268 > 100 µM | RPMI-8226 > 100 µM | A549 > 100 µM | RXF 631 > 100 µM | SK-MEL-2 > 100 µM | XF498 > 100 µM | M14 > 100 µM | DMS-273 > 100 µM | HL-60 > 100 µM | K562 > 100 µM | SF-539 > 100 µM | SN12C > 100 µM | DMS-114 > 100 µM | HOP-92 > 100 µM | SK-OV-3 > 100 µM | MOLT-4 > 100 µM | HCC 2998 > 100 µM | SF-295 > 100 µM | UACC-257 > 100 µM | LXFL 529 > 100 µM | U-251 > 100 µM | NCI-H23 > 100 µM | IGROV-1 > 100 µM | KM12 > 100 µM | A498 > 100 µM | HCT-116 > 100 µM | RXF 393 > 100 µM | 786-0 > 100 µM | HOP-62 > 100 µM | HT-29 > 100 µM | ACHN > 100 µM | UACC-62 > 100 µM | CCRF-CEM > 100 µM | SK-MEL-28 > 100 µM | SNB-78 > 100 µM | SR > 100 µM | DLD-1 > 100 µM | SNB-19 > 100 µM | SW-620 > 100 µM | SK-MEL-5 > 100 µM | OVCAR-8 > 100 µM | Malme-3M > 100 µM | UO-31 > 100 µM | OVCAR-5 > 100 µM | TK-10 > 100 µM | OVCAR-3 > 100 µM | SNB-75 38.1 µM | NCI-H226 > 100 µM
> 100 µM: HCT-15

CCOC(=O)c1ncn2c1[nH]c(=S)c1ccccc12
inactive: NCI-H460 > 100 µM | LOX IMVI 61.7 µM | SF-268 > 100 µM | RPMI-8226 31.3 µM | A549 > 100 µM | RXF 631 > 100 µM | SK-MEL-2 > 100 µM | M14 > 100 µM | HOP-18 > 100 µM | DMS-273 44.1 µM | OVCAR-4 > 100 µM | HL-60 > 100 µM | K562 91.6 µM | SF-539 > 100 µM | NCI-H522 73.6 µM | COLO 205 49.8 µM | KM-20L2 > 100 µM | M19-MEL > 100 µM | SN12C > 100 µM | DMS-114 49.1 µM | HOP-92 > 100 µM | SK-OV-3 > 100 µM | MOLT-4 > 100 µM | HCC 2998 > 100 µM | SF-295 > 100 µM | UACC-257 > 100 µM | LXFL 529 > 100 µM | U-251 46.9 µM | NCI-H23 > 100 µM | IGROV-1 > 100 µM | KM12 > 100 µM | A498 > 100 µM | HCT-116 > 100 µM | RXF 393 > 100 µM | 786-0 > 100 µM | HOP-62 > 100 µM | HT-29 > 100 µM | ACHN > 100 µM | UACC-62 > 100 µM | CCRF-CEM 50.2 µM | SK-MEL-28 > 100 µM | DLD-1 > 100 µM | SNB-19 > 100 µM | SW-620 22.9 µM | SK-MEL-5 > 100 µM | OVCAR-8 > 100 µM | Malme-3M > 100 µM | UO-31 > 100 µM | OVCAR-5 > 100 µM | TK-10 > 100 µM | OVCAR-3 > 100 µM | SNB-75 > 100 µM | EKVX > 100 µM | CAKI-1 > 100 µM | NCI-H226 > 100 µM
> 100 µM: HCT-15

Nc1ccc(S(=O)(=O)Nc2cnc3c(Cl)cccc3n2)cc1 [CHLORSULFAQUINOXALINE]
inactive: NCI-H460 129 µM | LOX IMVI 84.9 µM | SF-268 197 µM | RPMI-8226 129 µM | A549 117 µM | SK-MEL-2 226 µM | XF498 275 µM | M14 274 µM | MDA-N 24.3 µM | HOP-18 189 µM | DMS-273 152 µM | OVCAR-4 125 µM | HL-60 167 µM | K562 23.2 µM | SF-539 126 µM | NCI-H522 29 µM | COLO 205 23.9 µM | KM-20L2 292 µM | MDA-MB-435 > 70 µM | BT-549 > 60.5 µM | T47D 96.2 µM | M19-MEL 232 µM | SN12C 94.4 µM | DMS-114 2.94 µM | DU-145 175 µM | HOP-92 71.3 µM | SK-OV-3 > 33 µM | MOLT-4 75.2 µM | HCC 2998 99.5 µM | SF-295 31.4 µM | UACC-257 344 µM | LXFL 529 31.4 µM | Hs-578T 63.5 µM | U-251 207 µM | NCI/ADR-RES 47.5 µM | NCI-H23 163 µM | IGROV-1 2.58 µM | MCF7 101 µM | KM12 147 µM | A498 131 µM | HCT-116 7.28 µM | RXF 393 82.2 µM | 786-0 86.3 µM | HOP-62 78.9 µM | HT-29 248 µM | ACHN 107 µM | UACC-62 36.7 µM | CCRF-CEM 52.6 µM | SK-MEL-28 151 µM | SNB-78 151 µM | SR 56.4 µM | DLD-1 93.1 µM | SNB-19 92.3 µM | SW-620 26.1 µM | SK-MEL-5 144 µM | OVCAR-8 144 µM | MDA-MB-231 > 69.7 µM | Malme-3M 164 µM | UO-31 151 µM | OVCAR-5 192 µM | TK-10 41.6 µM | OVCAR-3 167 µM | SNB-75 181 µM | EKVX 222 µM | PC-3 86.1 µM | CAKI-1 56.2 µM | NCI-H226 163 µM
53 µM: HCT-15
